Laboratory results published in article PMC8500837, “The tertiary structure of the human Xkr8–Basigin complex that scrambles phospholipids at plasma membranes” (Nature Structural & Molecular Biology, 2021).
Where a chain is given by its changes, count along the chain named. Structures can show the parent of a compound that is named as a salt.

Columns and labels:
[1] = target: T1, mXkr8 (mXkr8-GFP; mXkr8–BSG complex) (Mus musculus, UniProt Q8C0T0, W45A); experiment: flow cytometry of NBD-SM internalization (BSA back-extraction) in Ba/F3 transformants; format: cell-based; details: 0.5 µM NBD-SM, 20 °C, labelled compound; constitutively active mutant
T1 construct: gene Xkr8; full length, C-terminal GFP tag, stably expressed in TMEM16F-/- Xkr8-/- mouse Ba/F3 cells; endogenous Basigin (or Neuroplastin) as partner; with Basigin
T1 sequence (Q8C0T0 1-401 W45A): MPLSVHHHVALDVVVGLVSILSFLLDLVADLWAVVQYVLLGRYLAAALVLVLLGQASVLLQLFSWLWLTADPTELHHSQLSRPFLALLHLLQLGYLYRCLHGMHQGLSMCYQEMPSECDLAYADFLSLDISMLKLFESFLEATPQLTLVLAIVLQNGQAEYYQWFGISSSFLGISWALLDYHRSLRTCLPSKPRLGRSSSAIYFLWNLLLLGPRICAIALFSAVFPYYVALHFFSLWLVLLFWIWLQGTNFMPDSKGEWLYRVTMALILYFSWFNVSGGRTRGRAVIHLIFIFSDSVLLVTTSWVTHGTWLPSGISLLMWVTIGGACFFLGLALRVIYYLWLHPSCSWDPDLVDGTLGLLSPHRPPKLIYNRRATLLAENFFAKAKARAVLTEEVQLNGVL
T1 sequence (P18572 22-389 partner): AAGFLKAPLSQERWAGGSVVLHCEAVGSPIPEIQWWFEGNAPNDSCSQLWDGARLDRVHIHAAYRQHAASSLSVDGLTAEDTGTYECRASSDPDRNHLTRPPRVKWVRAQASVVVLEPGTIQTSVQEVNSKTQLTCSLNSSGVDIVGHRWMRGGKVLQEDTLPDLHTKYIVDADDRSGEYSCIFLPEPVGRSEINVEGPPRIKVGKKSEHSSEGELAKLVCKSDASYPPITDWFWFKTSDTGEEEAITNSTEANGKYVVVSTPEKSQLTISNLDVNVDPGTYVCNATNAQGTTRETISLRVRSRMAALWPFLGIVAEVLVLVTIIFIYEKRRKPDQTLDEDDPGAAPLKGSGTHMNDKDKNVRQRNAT

[2] = target: T2, mXkr8 (mXkr8-GFP; mXkr8–BSG complex) (Mus musculus, UniProt Q8C0T0); experiment: as above; format: cell-based; details: 0.5 µM NBD-SM, 4 °C or 20 °C, labelled compound; lipid scrambling outer to inner leaflet
T2 construct: gene Xkr8; full length, C-terminal GFP tag, stably expressed in TMEM16F-/- Xkr8-/- mouse Ba/F3 cells; endogenous Basigin (or Neuroplastin) as partner; with Basigin
T2 sequence (Q8C0T0 1-401): T1 sequence (Q8C0T0 1-401 W45A) with A45W
T2 sequence (P18572 22-389 partner): T1 sequence (P18572 22-389 partner)

Structure (SMILES): CCCCCCCCCCCCC/C=C/[C@@H](O)[C@H](COP(=O)([O-])OCC[N+](C)(C)C)NC(=O)CCCCCNc1ccc([N+](=O)[O-])c2nonc12 [NBD-SM, (7S)-4-hydroxy-7-[(1R,2E)-1-hydroxy-2-hexadecen-1-yl]-N,N,N-trimethyl-14-[(7-nitro-2,1,3-benzoxadiazol-4-yl)amino]-9-oxo-3,5-dioxa-8-aza-4-phosphatetradecan-1-aminium, 4-oxide inner salt]
- fold internalization vs wild type [1]: ~ 3 fold
- flow cytometry of NBD-SM internalization (BSA back-extraction) in Ba/F3 transfor [2]: Ba/F3 cell transformants expressing wild-type Xkr8 efficiently incorporated NBD-SM
